Holding throughout (format): cell-based
For one test, the system named is keratinocytes. Briefly: Keratinocyte growth by Wnt-derived peptides (microscopy). As to conditions: 72 hours (FIG. 3A). As for the experimental part:
(§1) To confirm the shape change and proliferation rate of cells, keratinocytes T0020001 (AddexBio), fibroblasts (ATCC), and dermal papilla cells were cultured in DMEM medium containing 10% fetal bovine serum and 1% penicillin/streptomycin.
(§2) After the cells were recovered by treating the cultured cells with trypsin/EDTA and the number of cells was measured using a hematocytometer. The cells were seeded in 96 well plates at 3×10^3 cells/200 μL/well and stabilized for at least 4 hours.
(§3) Thereafter, the medium was removed, diluted with DEME medium so as to be the Wnt peptides (Wnt-1, Wnt-2) of 10, 100, 1000, and 10000 ng/mL and then treated with cells and cultured for 72 hours in an incubator at 37° C., 5% CO2. The cells were then observed by a microscope to analyze the morphology and growth rate of the cells.

A further test deals with β-catenin. Briefly: Expression analysis of β-catenin in dermal papilla cells (western blot). The note with it: FIG. 6 legend. As to the method: (§4) As in Example 1, the dermal papilla cells were stabilized for at least 4 hours after seeding in 6 well plates at 4×10^4 cells/well. Thereafter, the medium was removed, and the cell was treated with PDRN, Wnt-1 peptide and Wnt-2 peptide at various concentrations alone or in combination and incubated for 72 hours in an incubator at 37° C., 5% CO2.
(§5) Then, the cells were lysed by adding lysis buffer (1 M Tris-HCl, 0.5 M EDTA, 1% Triton X-100, 100 mM PMSF) to each cell, and the protein was quantified using a BCA (Bicinconinic acid) kit. 20 μg of protein was loaded on 10% SDS-polyacrylamide and electrophoresed at 125 V. The protein separated by electrophoresis was transferred to PVDF membrane (Immobilon-P transfermembrane) by electrophoresis at 50 mA for 120 minutes using transfer buffer (20% methanol, 25 mM Tris-HCl, 192 mM glycine).
(§6) To prevent nonspecific binding, the membranes were blocked with 5% non-fat skim milk and then the reaction was carried out at 4° C. for 12 hours with a primary antibody (β-catenin, c-myc, Santa Cruz Biotechnology, Inc.) diluted to 1:1000 in TTBS solution ([…], pH 7.4; 20 mM NaCl; 0.05% Tween-20). Thereafter, the membrane was washed three times with TTBS and reacted with a secondary antibody (HRP-conjugated anti-rabbit IgG) diluted to 1:2000 at room temperature for 2 hours. The membrane was then washed three times with TTBS and then protein expression was confirmed on the X-ray film using an ECL diagnostic kit.

For test [1], the system named is dermal papilla cells. The experiment in a line: Dermal papilla cell growth by Wnt-derived peptides (microscopy). As to conditions: 100 ng/mL among 10-10000 ng/mL, 72 hours (FIG. 3C). As to the method: as §1, §2, §3
A further test concerns c-myc. Briefly: Expression analysis of c-myc in dermal papilla cells (western blot). The note with it: for activity of c-myc: FIG. 7 legend. As for the experimental part: as §4, §5, §6
The next test relates to fibroblasts. Briefly: Fibroblast growth by Wnt-derived peptides (microscopy). The note with it: 10-10000 ng/mL, 72 hours, compared to the control group (FIG. 3B). As for the experimental part: as §1, §2, §3
The test system of test [2] is dermal papilla cells. The experiment in a line: Dermal papilla cell growth rate by cell counting (PDRN alone or with Wnt-1+Wnt-2). As to conditions: PDRN 50, 100, 200 μg/mL, 72 hours, relative to control without PDRN (FIG. 2). As to the method:
Dermal papilla cells (Promocells) were cultured in an incubator at 37° C., 5% CO2 using DMEM medium (Dulbeco's Modified Eagle's Medium) containing 10% fetal bovine serum (FBS) and 1% penicillin/streptomycin.
Cells were recovered by treating the cultured cells with trypsin/EDTA, and then the number of cells was measured using a hemacytometer. The cells were seeded in 96 well plates at 3×10^3 cells/200 μL/well and then stabilized for at least 4 hours. Thereafter, the medium was removed, diluted in DEME medium so as to be the polydeoxyribonucleotide (PDRN) of 50, 100, 200 μg/mL concentration and then treated with cells and cultured for 72 hours in an incubator at 37° C., 5% CO2.
Subsequently, the cells were recovered by treating them with trypsin/EDTA and then the number of cells was measured using a hematocytometer. Cell growth rate was analyzed by calculating percentages based on the control group without the treatment with PDRN.
As in Example 1, the dermal papilla cells were seeded in 96 well plates at 3×10^3 cells/200 μL/well and stabilized for at least 4 hours. Thereafter, the medium was removed, diluted with DEME medium so as to be polydeoxyribonucleotide (PDRN, BR Pharm Co. Ltd.) of 25, 50, 100 μg/mL and Wnt-1 peptide+Wnt-2 peptide of 0.1 μg/mL (each 0.05 μg/mL) and then treated with cells and cultured for 72 hours in an incubator at 37° C., 5% CO2.

Ends that are not written are not given here.

As to “MCCGRGYDQF (Ac-MCCGRGYDQF; cysteine pairing not given here) [Wnt-1]”, in the test with keratinocytes (10, 100, 1000, 10000 ng/mL), the “growth rate of the cells (keratinocytes)” value was “growth rate of the cells was increased”. The “activity of β-catenin” value in the test with β-catenin is recorded as “effect of increasing the activity of β-catenin”. For the same substance, in the test with dermal papilla cells [1], the “cell growth rate (dermal papilla cells) at 100 ng/mL” value is given as “highest cell growth rate”. Moreover, the activity of c-myc entry in the test on c-myc is listed as “effect of increasing the activity of c-myc”.
With “MCCGRGYNYH (Ac-MCCGRGYNYH; cysteine pairing not given here) [Wnt-2]”, the “cell growth rate (keratinocytes) at 100 ng/mL” value in the test on keratinocytes (100 ng/mL among 10-10000 ng/mL) is given as “highest cell growth rate”. For the same substance, the “activity of β-catenin” value with β-catenin is on record as “effect of increasing the activity of β-catenin”. Moreover, in the test with dermal papilla cells [1], the “cell growth rate (dermal papilla cells) at 100 ng/mL” value was “highest cell growth rate”. In addition, the activity of c-myc entry with c-myc was “effect of increasing the activity of c-myc”. Also, in the test on fibroblasts, the “cell growth (fibroblasts) compared to the control group” value is on record as “no change was observed”.
Take polydeoxyribonucleotide [PDRN]: the “activity of β-catenin” value with β-catenin was “effect of increasing the activity of β-catenin”. The “expression of c-myc with PDRN treatment concentration” value in the test on c-myc (72 hours (FIG. 7)) is “increased as the treatment concentration of PDRN increased”. Moreover, the “growth rate of the dermal papilla cells” value with dermal papilla cells [2] is recorded as “increases as the PDRN treatment concentration increases”.
